Legend:
Type in all cases: binding
receptor BlaR-CTD [1] = biological target: T1, receptor BlaR-CTD (Bacillus licheniformis, UniProt P12287); experiment: 9-minute test: strip test for β-lactam antibiotics in milk using BlaR-CTD; conditions: for lowest concentration detected in a milk sample: in 9 minutes, positive when first band is less intense than second band; for Intensity 1st band: scale 0 to 10, reference band 6, 47° C., 7 min incubation + 2 min migration
T1 construct: the receptor BlaR-CTD is the carboxy-terminal region of BlaR
From the text: (§1) According to a preferred embodiment of the invention an identifier is used which comprises a receptor sensitive to antibiotics having a β-lactam ring, which receptor is obtained from Bacillus licheniformis, such as the receptor BlaR or the receptor BlaR-CTD. The isolation and the peptide sequence of the protein BlaR are described in Y. Zhu et al., J. Bacteriol., 1137-1141 (1990); the receptor BlaR-CTD is the carboxy-terminal region of BlaR, whose isolation and peptide sequence are described in B. Joris et al., FEMS Microbiology Letters, 107-114 (1990).
(§2) This example illustrates the detection in milk of antibiotics having a β-lactam ring which are monitored by the health authorities. The test described in this example uses the receptor BlaR-CTD coupled with gold beads, which serve as labelling agents, and uses a support which is in the form of an assay device comprising a solid support on which membranes are fixed.
(§3) 3.79 ml of a solution of recognition agent BlaR-CTD having a concentration of 6.6 mg/ml are taken up in a sodium phosphate buffer, 20 mM pH 7. To this solution of BlaR-CTD are then added 41.71 ml of bicarbonate buffer (0.1 M sodium bicarbonate, pH 9) and 2 ml of a solution of N-hydroxysuccinimide 6-(biotinamido)caproic ester containing 2.23 mg/ml likewise of bicarbonate buffer. This solution is stirred gently on a LABINCO stirrer for tubes on a rotary axis (available from VEL, Belgium) at a rate of 2 revolutions/minute for 2 hours at ambient temperature and away from light. 2.5 ml of a solution of Tris buffer, 1 M pH 8 are incubated with the reaction mixture under the same conditions for 30 minutes. The solution thus obtained is dialysed against HNM buffer (Hepes 100 mM, pH 8, NaCl 100 mM, MgCl2 50 mM) for 24 hours. In this way a biotinylated BlaR-CTD solution is obtained which is diluted in HNM-BSA buffer (Hepes 500 mM, pH 8, NaCl 500 mM, MgCl2 250 mM, BSA 10 mg/ml) to a concentration of 250 μg of biotinylated BlaR-CTD per ml of buffer. This solution is stored at −20° C.
(§4) The biotinylated BlaR-CTD solution prepared in Example 3.1.1 is diluted 114.7 times with the HNM-BSA buffer (Hepes 500 mM, pH 8, NaCl 500 mM, MgCl2 250 mM, BSA 10 mg/ml). At room temperature, 22.5 parts by volume of this dilute biotinylated BlaR-CTD solution, 7.5 parts by volume of HNM-BSA buffer, 9.27 parts by volume of the gold particle suspension used to label the biotinylated BlaR-CTD and 6 parts by volume of reference gold particle suspension are mixed (see Example 3.1.4 below).
(§5) The first capture substance makes it possible to fix the BlaR-CTD coupled with the gold beads present in excess relative to the quantity of antibiotic present in the sample.
(§6) Assay devices containing membranes (2), (3) and (4) are used, assembled in accordance with the procedure described in Example 1.1. The membrane (3) of these devices carries on the proximal side the capture substance described in Example 32.1. and on the distal side the capture substance described in Example 3.2.2. The capture substances were deposited in accordance with the procedure described in Example 1.2.
Six samples of fresh milk are prepared, containing 0; 4; 6; 8; 10 and 12 ppb, respectively, of cephapirin. Each of these solutions is then analysed as follows.
(§7) An aliquot is taken of 200 μl of milk sample and 45.27 μl of solution prepared in Example 3.1.3, and is placed in a glass flask. This mixture is incubated at 47° C. for 7 minutes. An assay device is taken and is placed vertically in the glass flask such that the first end of the assay device is in contact with the mixture in such a way that the second end rests on the wall of the glass flask. The mixture is allowed to migrate over the assay device while the assembly is incubated at 47° C. for 2 minutes.
(§8) An intensity value ranging from 0 to 10 is awarded to the bands detected, the value 10 being given to the most intense band and the value 0 being given to the least intense band. On this scale, a value of 6 is awarded to the reference band. […]

receptor BlaR-CTD [2] = biological target: T1, receptor BlaR-CTD; experiment: Five minutes test: strip test for β-lactam antibiotics in milk using BlaR-CTD; conditions: for lowest concentration detected in a milk sample: in 5 minutes, positive when first band is less intense than second band; for Intensity 1st band: scale 0 to 10, reference band 6, 47° C., 3 min incubation + 2 min migration
From the text: as §1, §2, §3, §4, §5, §6
Six samples of fresh milk are prepared, containing 0; 2; 4; 6; 8 and 10 ppb, repsectively, of cloxacillin. Each of these solutions is then analysed as follows.
as §7, with “for 3” for “for 7”
as §8

receptor BlaR-CTD [3] = biological target: T1, receptor BlaR-CTD; experiment: 20-minute test: strip test for β-lactam antibiotics in milk using BlaR-CTD; conditions: for Intensity 1st band: scale 0 to 10, reference band 6, 47° C., 18 min incubation + 2 min migration
From the text: as §1, §2, §3, §4, §5, §6
Six samples of fresh milk are prepared, containing 0; 20; 30; 40; 50 and 60 ppb, respectively, of ceftiofur. Each of these solutions is then analysed as follows.
as §7, with “for 18” for “for 7”
An intensity value ranging from 0 to 10 is awarded to the bands detected, the value 10 being given to the most intense band and the value 0 being given to the least intense band. On this scale, a value 6 is awarded to the reference band. […]

receptor BlaR-CTD [4] = biological target: T1, receptor BlaR-CTD; experiment: 3-minute rapid test: strip test for β-lactam antibiotics in milk using BlaR-CTD; conditions: in 3 minutes; positive when first band is less intense than second band
From the text: as §1, §2, §3, §4, §5, §6
7 samples of fresh milk are prepared, containing 0; 1; 2; 3; 4; 5 and 6 ppb, respectively, of penicillin G. Each of these solutions is then analysed as follows.
as §7, with “for 1 minute.” for “for 7 minutes.”, “mixture and” for “mixture in”, “such” for “such a way”
as §8

T1 sequence (P12287 340-601): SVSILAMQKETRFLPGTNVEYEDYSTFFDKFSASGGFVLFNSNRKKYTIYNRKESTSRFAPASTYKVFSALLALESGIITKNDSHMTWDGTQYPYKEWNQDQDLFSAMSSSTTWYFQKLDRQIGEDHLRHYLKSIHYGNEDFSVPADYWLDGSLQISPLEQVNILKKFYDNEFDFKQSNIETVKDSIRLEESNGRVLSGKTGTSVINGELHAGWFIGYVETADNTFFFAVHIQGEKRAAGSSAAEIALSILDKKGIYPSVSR

SMILES | lowest concentration detected in a milk sample (receptor BlaR-CTD [1]) | lowest concentration detected in a milk sample (receptor BlaR-CTD [2]) | lowest concentration detected in a milk sample (receptor BlaR-CTD [4]) | other results
CO/N=C(\C(=O)N[C@@H]1C(=O)N2C(C(=O)O)=C(CSC(=O)c3ccco3)CS[C@H]12)c1csc(N)n1 [Ceftiofur, ceftiofur] | 80 ppb | 100 ppb |  | Intensity 1st band (receptor BlaR-CTD [3]; 20 ppb ceftiofur in fresh milk): 6; Intensity 1st band (receptor BlaR-CTD [3]; 30 ppb ceftiofur in fresh milk): 5; Intensity 1st band (receptor BlaR-CTD [3]; 40 ppb ceftiofur in fresh milk): 4; Intensity 1st band (receptor BlaR-CTD [3]; 50 ppb ceftiofur in fresh milk): 3; Intensity 1st band (receptor BlaR-CTD [3]; 60 ppb ceftiofur in fresh milk): 3; lowest concentration detected in a milk sample (receptor BlaR-CTD [3]; in 20 minutes, positive when first band is less intense than second band): 30 ppb
CC(=O)OCC1=C(C(=O)O)N2C(=O)[C@@H](NC(=O)CSc3ccncc3)[C@H]2SC1 [Cephapirin, cephapirin] | 6 ppb | 16 ppb | 20 ppb | Intensity 1st band (receptor BlaR-CTD [1]; 4 ppb cephapirin in fresh milk): 6; Intensity 1st band (receptor BlaR-CTD [1]; 6 ppb cephapirin in fresh milk): 5; Intensity 1st band (receptor BlaR-CTD [1]; 8 ppb cephapirin in fresh milk): 4; Intensity 1st band (receptor BlaR-CTD [1]; 10 ppb cephapirin in fresh milk): 3; Intensity 1st band (receptor BlaR-CTD [1]; 12 ppb cephapirin in fresh milk): 3
Cc1onc(-c2ccccc2Cl)c1C(=O)N[C@@H]1C(=O)N2[C@@H]1SC(C)(C)[C@@H]2C(=O)O [Cloxacillin, cloxacillin] | 4 ppb | 4 ppb | less than 10 ppb | Intensity 1st band (receptor BlaR-CTD [2]; 2 ppb cloxacillin in fresh milk): 6; Intensity 1st band (receptor BlaR-CTD [2]; 4 ppb cloxacillin in fresh milk): 5; Intensity 1st band (receptor BlaR-CTD [2]; 6 ppb cloxacillin in fresh milk): 3; Intensity 1st band (receptor BlaR-CTD [2]; 8 ppb cloxacillin in fresh milk): 3; Intensity 1st band (receptor BlaR-CTD [2]; 10 ppb cloxacillin in fresh milk): 3
CC1(C)S[C@@H]2[C@H](NC(=O)[C@H](N)c3ccc(O)cc3)C(=O)N2[C@H]1C(=O)O [amoxicillin] | 4 ppb | 4 ppb | 5 ppb | 
CC1(C)S[C@@H]2[C@H](NC(=O)[C@H](N)c3ccccc3)C(=O)N2[C@H]1C(=O)O [ampicillin] | 4 ppb | 4 ppb | 5 ppb | 
Cc1nnc(SCC2=C(C(=O)O)N3C(=O)[C@@H](NC(=O)Cn4cnnn4)[C@H]3SC2)s1 [cefazolin] | 45 ppb | 60 ppb |  | 
CO/N=C(\C(=O)N[C@@H]1C(=O)N2C(C(=O)[O-])=C(C[n+]3cccc4c3CCCC4)CS[C@H]12)c1csc(N)n1 [cefquinone] | less than 20 ppb | less than 20 ppb |  | 
Cc1onc(-c2c(Cl)cccc2Cl)c1C(=O)N[C@@H]1C(=O)N2[C@@H]1SC(C)(C)[C@@H]2C(=O)O [dicloxacillin] | 8 ppb | 8 ppb |  | 
CCOc1ccc2ccccc2c1C(=O)N[C@@H]1C(=O)N2[C@@H]1SC(C)(C)[C@@H]2C(=O)O [nafcillin] | 20 ppb | 20 ppb |  | 
Cc1onc(-c2ccccc2)c1C(=O)N[C@@H]1C(=O)N2[C@@H]1SC(C)(C)[C@@H]2C(=O)O [oxacillin] | 8 ppb | 8 ppb |  | 

— US20040096356A1, “Assay device for determining analytes in a liquid dairy product” (priority 1997, published 2004)
